The text below walks through data of patent publication US20100216823A1 (Pfizer Inc., priority 2007, published 2010).

Common to all, as to type: biochemical
One experiment has as its target T1, PDE7A (Homo sapiens, UniProt Q13946).
T1 construct: cell lysate containing full length PDE7A, PDE7B and PDE1C enzyme; made in house; host or cells: cell lysate
Briefly: PDE7A [3H]-cAMP scintillation proximity assay (SPA) enzyme inhibition. Conditions: for Ki: full length PDE7A in cell lysate, ~25 nM cAMP, Ki from IC50 by Cheng-Prussof equation; for 1C/7A selectivity: ratio PDE1C Ki / PDE7A Ki. The method, then:
(§1) The ability of the compounds of formula (I) to inhibit PDE7 and PDE1 may be measured using the following assay protocol.
(§2) PDE7A, PDE7B and PDE1C enzymes catalyse the hydrolysis of 3′,5′-cyclic adenosine monophosphate (cAMP) to the 5′ adenosine monophosphate, 5′AMP. In a multiwell plate, PDE enzyme, [^3H]-cAMP and the test compounds, are incubated at room temperature. The incubation is terminated by addition of commercially available yttrium silicate scintillation proximity assay (SPA) beads containing zinc sulphate. The yttrium silicate beads preferentially bind linear nucleotides, thus the product of the enzyme reaction, [^3H]-5′AMP binds to the bead to produce a light signal, which is detected by a scintillation counter. The amount of signal produced directly correlates with the amount of product formed, and thus the activity of the enzyme. The maximum signal is obtained where enzyme and substrate are incubated alone. The background signal is measured from wells either containing no enzyme, or from wells containing a supra-maximal concentration of a known PDE 7A/7B/1C inhibitor. Each purified batch of enzyme is quality controlled and its Km, Vmax and specific activity determined from kinetic studies before use in compound inhibition studies. The inhibition of the enzyme, by a test compound, is calculated relative to the maximum and background responses.
(§3) The compound of Example 75 of WO 02/074754, 5′-carboxypropoxy-8′-chloro-spiro[cyclohexane-1-4′-(3′,4′-dihydro)quinazolin]-2′(1′H)-one (referred to as compound A hereafter) was used as a standard for PDE7A and PDE7B. The compound of Example 32 of WO 02/074754, 4-(8′-chloro-2′-oxo-2′,3′-dihydro-1′H-spiro[cyclohexane-1,4′-quinazolin]-6′-yl)benzoic acid (referred to as compound B hereafter) was used as a standard for PDE1C.
(§4) The optimisation of this assay has been carried out using cell lysate containing full length PDE7A, PDE7B and PDE1C enzyme. The concentration of the enzyme in this cell lysate sample is unknown, so the specific activity of the cell lysate is used as a measure to ensure that the same activity per well is used despite any batch-to-batch variation of concentration/activity.
(§5) PDE7A/7B/1C stock enzyme was prepared and kept at −20° C. in appropriately sized aliquots to reduce the number of freeze/thaw cycles. […] PDE7A is diluted to 1/8000, PDE7B to 1/10000 and PDE1C to 1/200000.
(§6) The final assay [cAMP] of ˜25 nM is required, so ˜50 nM [^3H]-cAMP was prepared. 9 ml of substrate solution was prepared by mixing 10.8 μl of [^3H]-cAMP (available from Amersham) with 8975 μl of assay buffer.
(§7) 1 μl test compound was transferred into a suitable multi-well assay plate immediately prior to reagent assay addition, 14 μl enzyme solution was then added to the assay plate, followed by 15 μl substrate solution (ie: final assay volume 30 μl, with a final screening compound concentration of 1 μM for PDE7A and PDE7B and 10 μM for PDE1C). The plate was then sealed using a plate sealer and incubated at room temperature for 45 min on the plate shaker.
(§8) 30 μl Yttrium Silicate PDE4 SPA beads were then added, ensuring constant stirring of the beads to give even distribution in the assay plate. The plate was then sealed using a plate sealer and incubated at room temperature for 30 mins on the plate shaker. The beads were then allowed to settle for 30 mins, before spinning the plates for 1 min at 200 g.
(§9) The plates were then read on a suitable radioactive counter, for example NXT-TopCount™ (available from Perkin Elmer) using the relevant protocol (30 second read time per well).
(§10) The data was fitted to a sigmoid curve using a least squares algorithm.
(§11) The IC50 value was converted to a value using the Cheng-Prussof equation: […]

In a further experiment the target is T2, PDE7B (Homo sapiens, UniProt Q9NP56).
T2 construct: cell lysate containing full length PDE7A, PDE7B and PDE1C enzyme; made in house; host or cells: cell lysate
Briefly: PDE7B [3H]-cAMP scintillation proximity assay (SPA) enzyme inhibition. Conditions: for Ki: full length PDE7B in cell lysate, ~25 nM cAMP, Ki from IC50 by Cheng-Prussof equation; for 1C/7B selectivity: ratio PDE1C Ki / PDE7B Ki. The method, then:
as §1, §2, §3, §4, §5, §6, §7, §8, §9, §10, §11
(Scintillation proximity formats need no separation of bound from free tracer.)

A further experiment has as its target T3, PDE1C (Homo sapiens, UniProt Q14123).
T3 construct: cell lysate containing full length PDE7A, PDE7B and PDE1C enzyme; made in house; host or cells: cell lysate
In words: PDE1C [3H]-cAMP scintillation proximity assay (SPA) enzyme inhibition. Conditions: full length PDE1C in cell lysate; 75 nM cAMP; Ki from IC50 by Cheng-Prussof equation. As to the method: as §1, §2, §3, §4, §5
The final assay [cAMP]=75 nM therefore the required solution [cAMP]=0.15 μM (1/2 dilution in assay plate)
as §7, §8, §9, §10, §11

Where only a bound is given, the exact number is not on record here.

T1 sequence (Q13946 whole entry): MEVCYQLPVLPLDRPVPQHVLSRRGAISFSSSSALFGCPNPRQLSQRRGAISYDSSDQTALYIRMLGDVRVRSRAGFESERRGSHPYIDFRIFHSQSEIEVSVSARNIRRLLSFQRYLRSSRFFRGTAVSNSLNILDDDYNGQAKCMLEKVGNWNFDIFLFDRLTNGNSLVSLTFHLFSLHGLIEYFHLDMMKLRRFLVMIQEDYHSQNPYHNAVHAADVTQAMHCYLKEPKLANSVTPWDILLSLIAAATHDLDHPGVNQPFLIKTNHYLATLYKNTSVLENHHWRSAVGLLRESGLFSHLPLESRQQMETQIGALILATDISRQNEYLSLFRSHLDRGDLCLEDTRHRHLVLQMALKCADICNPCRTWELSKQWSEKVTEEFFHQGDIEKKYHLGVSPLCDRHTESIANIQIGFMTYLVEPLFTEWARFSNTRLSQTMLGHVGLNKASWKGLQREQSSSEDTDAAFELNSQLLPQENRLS
T3 sequence (Q14123 whole entry): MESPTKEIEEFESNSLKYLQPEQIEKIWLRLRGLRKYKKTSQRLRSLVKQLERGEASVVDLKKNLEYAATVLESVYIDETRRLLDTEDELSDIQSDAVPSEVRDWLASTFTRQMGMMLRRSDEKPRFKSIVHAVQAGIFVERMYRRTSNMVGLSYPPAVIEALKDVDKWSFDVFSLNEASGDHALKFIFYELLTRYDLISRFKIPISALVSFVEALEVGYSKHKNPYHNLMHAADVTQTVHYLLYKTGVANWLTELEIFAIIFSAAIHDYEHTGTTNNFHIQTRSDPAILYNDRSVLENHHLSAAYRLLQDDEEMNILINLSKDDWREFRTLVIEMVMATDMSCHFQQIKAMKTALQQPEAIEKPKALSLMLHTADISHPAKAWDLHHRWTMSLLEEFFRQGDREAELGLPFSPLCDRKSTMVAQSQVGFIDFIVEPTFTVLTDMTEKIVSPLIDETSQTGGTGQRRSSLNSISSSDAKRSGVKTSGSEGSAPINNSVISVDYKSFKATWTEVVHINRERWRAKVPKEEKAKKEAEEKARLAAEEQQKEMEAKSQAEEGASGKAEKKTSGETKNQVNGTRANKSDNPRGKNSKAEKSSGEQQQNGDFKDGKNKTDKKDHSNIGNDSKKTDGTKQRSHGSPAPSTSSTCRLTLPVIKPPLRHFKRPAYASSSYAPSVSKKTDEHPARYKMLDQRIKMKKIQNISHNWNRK
T2 sequence (Q9NP56 whole entry): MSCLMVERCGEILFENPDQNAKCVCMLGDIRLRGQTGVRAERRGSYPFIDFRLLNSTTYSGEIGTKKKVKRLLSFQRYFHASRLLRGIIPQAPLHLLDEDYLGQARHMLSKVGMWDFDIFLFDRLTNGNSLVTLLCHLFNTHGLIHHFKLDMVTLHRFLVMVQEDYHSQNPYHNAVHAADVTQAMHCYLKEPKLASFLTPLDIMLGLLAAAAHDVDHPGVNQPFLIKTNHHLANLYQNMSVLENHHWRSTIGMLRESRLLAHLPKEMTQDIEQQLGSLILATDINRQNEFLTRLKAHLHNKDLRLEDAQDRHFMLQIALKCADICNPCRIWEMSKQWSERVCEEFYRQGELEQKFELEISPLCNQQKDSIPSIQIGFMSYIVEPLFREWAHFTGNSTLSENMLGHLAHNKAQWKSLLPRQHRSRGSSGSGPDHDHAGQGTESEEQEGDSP

As a reminder, the Ki is a measure of affinity in units of concentration, obtained from inhibition or displacement. A low value points to tighter binding. With `O=C1Nc2c(F)ccc(Oc3c(Cl)cccc3C(=O)O)c2C2(CCCCC2)N1` [Example 9, 3-chloro-2-{(8′-fluoro-2′-oxo-2′,3′-dihydro-1′H-spiro[cyclohexane-1,4′-quinazolin]-5′-yl)oxy}benzoic acid], at PDE7A, the Ki is 32 nM and the 1C/7A selectivity is recorded as more than 116. Besides, on PDE7B, the Ki worked out at 41 nM and the 1C/7B selectivity is on record as more than 92. For the same compound, at PDE1C, the Ki was more than 3750 nM.
Regarding `O=C1Nc2c(Cl)ccc(-c3cccc(C(=O)O)c3)c2C2(CCCCC2)N1` [Example 2], the Ki was 3.1 nM at PDE7A, 12 nM on PDE7B and more than 5630 nM at PDE1C. In addition, the 1C/7A selectivity at PDE7A was more than 1810. In addition, at PDE7B, the 1C/7B selectivity was more than 477.
For `O=C1Nc2c(Cl)ccc(Oc3ccc(F)cc3-c3nnn[nH]3)c2C2(CCCC2)N1` [Example 13, 8′-chloro-5′-[4-fluoro-2-(1H-tetrazol-5-yl)phenoxy]-1′H-spiro[cyclopentane-1,4′-quinazolin]-2′(3′H)-one], in that order: 1.7 nM, 7.2 nM, 862 nM, 523 and 119.
The like results for `O=C1Nc2c(F)ccc(Oc3c(F)cccc3-c3nn[nH]n3)c2C2(CCCCC2)N1` [Example 12] were, in that order, 0.3 nM, 0.7 nM, 89 nM, 301 and 123.
As to `O=C1Nc2c(Cl)ccc(-c3ccc(C(=O)O)c(F)c3)c2C2(CCCCC2)N1` [Example 3, 5-[(8′-chloro-2′-oxo-2′,3′-dihydro-1′H-spiro[cyclohexane-1,4′-quinazolin]-4′-yl)]-2-fluorobenzoic acid], the Ki was 11 nM at PDE7A, 101 nM on PDE7B and 2430 nM at PDE1C. Moreover, at PDE7A, the 1C/7A selectivity was 218. Further, the 1C/7B selectivity at PDE7B came out at 24.
The like results for `O=C1Nc2c(Cl)ccc(Oc3c(F)cccc3NS(=O)(=O)C(F)(F)F)c2C2(CCCCC2)N1` [Example 21, N-{2-[(8′-chloro-2′-oxo-2′,3′-dihydro-1′H-spiro[cyclohexane-1,4′-quinazolin]-5′-yl)oxy]-3-fluorophenyl}-1,1,1-trifluoromethanesulfonamide] were, in that order, 0.2 nM, 2.4 nM, 62 nM, 311 and 25.
For `O=C1Nc2c(Cl)ccc(Oc3c(F)cccc3-c3nn[nH]n3)c2C2(CCCC2)N1` [Example 14, 8′-chloro-5′-[6-fluoro-2-(1H-tetrazol-5-yl)phenoxy]-1′H-spiro[cyclopentane-1,4′-quinazolin]-2′(3′H)-one], in that order: 2.4 nM, 4.4 nM, 723 nM, 301 and 165.
`O=C1Nc2c(Cl)ccc(-c3ccc(F)c(C(=O)O)c3)c2C2(CCCCC2)N1` [Example 1, 5-[(8′-chloro-2′-oxo-2′,3′-dihydro-1′H-spiro[cyclohexane-1,4′-quinazolin]-5′-yl)]-2-fluorobenzoic acid]: on PDE7A, affinity was put at a Ki of 3.2 nM and the 1C/7A selectivity is recorded as more than 1750. Moreover, at PDE7B, the Ki came to 32 nM and the 1C/7B selectivity is reported as more than 175. Also, on PDE1C, the Ki was more than 5600 nM.
For `O=C1Nc2c(Cl)cc(-c3ccc(C(=O)O)cc3)cc2C2(CCCCC2)N1` [Compound B, 4-(8′-chloro-2′-oxo-2′,3′-dihydro-1′H-spiro[cyclohexane-1,4′-quinazolin]-6′-yl)benzoic acid, reference compound], in that order: 1.5 nM, 0.97, 39 nM, 0.04 and 1.4 nM.
On to `O=C(O)COc1ccc(Oc2ccc(Cl)c3c2C2(CCCCC2)NC(=O)N3)cc1` [Example 24, {4-[(8′-chloro-2′-oxo-2′,3′-dihydro-1′H-spiro[cyclohexane-1,4′-quinazolin]-5′-yl)oxy]phenoxy}acetic acid], for which the Ki came to 0.98 nM at PDE7A, 11 nM at PDE7B and 157 nM at PDE1C. For the same compound, on PDE7A, the 1C/7A selectivity was found to be 160. Also, the 1C/7B selectivity on PDE7B is listed as 14.
